pEC50: −log10 of the molar value. ≈ marks a conversion by molar mass, not a printed value.
What was measured:
[1] = Solubility of compound by pH 7 measured for 24 hrs by UPLC analysis; assay type: physicochemical; settings: buffer
[2] = Apparent permeability in dog MDCKII cells; assay type: ADME, cell-based, Canis lupus familiaris, MDCK-II; settings: MDCK
[3] = molecular target: T1, cGMP-dependent protein kinase 1 (Homo sapiens, UniProt Q13976); assay: Activation of PKG1alpha (unknown origin) in human HEK293 cellls assessed as […] phosphorylation at Ser 239 incubated for 3 hrs by HTRF assay; assay type: cell-based
T1 sequence (Q13976 whole entry): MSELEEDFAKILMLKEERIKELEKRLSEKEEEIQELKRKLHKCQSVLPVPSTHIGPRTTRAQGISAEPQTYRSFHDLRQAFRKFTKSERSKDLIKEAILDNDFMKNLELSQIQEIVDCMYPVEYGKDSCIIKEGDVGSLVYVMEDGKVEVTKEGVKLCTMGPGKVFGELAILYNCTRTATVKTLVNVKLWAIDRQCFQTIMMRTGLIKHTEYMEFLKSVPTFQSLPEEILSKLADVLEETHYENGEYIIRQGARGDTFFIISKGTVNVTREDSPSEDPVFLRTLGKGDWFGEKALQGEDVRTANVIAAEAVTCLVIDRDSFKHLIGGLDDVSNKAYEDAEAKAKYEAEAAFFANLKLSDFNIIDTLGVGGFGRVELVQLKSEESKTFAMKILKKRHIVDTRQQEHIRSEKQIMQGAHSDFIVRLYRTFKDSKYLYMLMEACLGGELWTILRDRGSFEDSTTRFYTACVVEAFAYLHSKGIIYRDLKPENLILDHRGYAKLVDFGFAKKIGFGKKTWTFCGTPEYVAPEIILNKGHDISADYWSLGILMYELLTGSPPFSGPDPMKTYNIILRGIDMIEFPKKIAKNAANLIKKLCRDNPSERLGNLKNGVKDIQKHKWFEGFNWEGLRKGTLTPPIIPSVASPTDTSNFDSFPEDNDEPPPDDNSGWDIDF

[4] = molecular target: T1, cGMP-dependent protein kinase 1; assay: Activation of full length PKG1alpha (unknown origin) using Glass-tide peptide substrate incubated for 120 mins followed by addition of ADP-Glo max reagent incubated for 40 mins

solubility at 24 h [1] [µM] | Papp [2] [×10⁻⁶ cm/s] | pEC50 [3] | pEC50 [4] | SMILES
120 (≈ 50 µg/mL) | 2 | < 3.79 |  | Clc1cc(Cl)cc(CO[C@H]2CCCN(Cc3ncc[nH]3)[C@H]2c2ccccc2)c1
 |  |  | 3.88 | OC[C@@H](O[C@H]1CCCN(Cc2ccc(-c3nn[nH]n3)cc2)[C@H]1c1ccccc1)c1cc(Cl)cc(Cl)c1
 |  |  | < 3.70 | O=C(O)c1ccc(CN2CCC[C@H](OCc3cc(Cl)cc(Cl)c3)[C@@H]2c2ccccc2)cn1
74 (≈ 37.1 µg/mL) | 14 | 4.55 | 4.47 | O=C(O)c1cncc(CN2CCC[C@H](O[C@H](CO)c3cc(Cl)cc(Cl)c3)[C@@H]2c2ccccc2)c1
 |  |  | 4.38 | CN1CCC[C@H](O[C@H](CO)c2cc(Cl)cc(Cl)c2)[C@@H]1c1ccccc1
 |  |  | 3.96 | Cn1cc(CN2CCC[C@H](OCc3cc(Cl)cc(Cl)c3)[C@@H]2c2ccccc2)cn1
 |  |  | < 3.70 | Clc1cc(Cl)cc(CO[C@H]2CCCN(Cc3ccccn3)[C@H]2c2ccccc2)c1
 |  |  | < 3.70 | CN1CCC[C@H](OCc2cc(Cl)cc(Cl)c2)[C@@H]1c1ccccc1
 |  |  | 3.78 | Cn1ccnc1CN1CCC[C@H](OCc2cc(Cl)cc(Cl)c2)[C@@H]1c1ccccc1
60 (≈ 26.8 µg/mL) | 19 | 5.06 |  | OC[C@@H](O[C@H]1CCCN(Cc2ncc[nH]2)[C@H]1c1ccccc1)c1cc(Cl)cc(Cl)c1
 |  |  | 4.12 | O=C(O)c1ccc(CN2CCC[C@H](OCc3cc(Cl)cc(Cl)c3)[C@@H]2c2ccccc2)cc1
 |  |  | 3.95 | Clc1cc(Cl)cc(CO[C@H]2CCCN(Cc3cccnc3)[C@H]2c2ccccc2)c1
 |  |  | 3.93 | O=C(O)c1cncc(CN2CCC[C@H](OCc3cc(Cl)cc(Cl)c3)[C@@H]2c2ccccc2)c1
 |  |  | 4.13 | Clc1cc(Cl)cc(CO[C@H]2CCCN(Cc3ccc(-c4nn[nH]n4)cc3)[C@H]2c2ccccc2)c1
85 (≈ 42.5 µg/mL) | 16 | 4.82 | 4.96 | O=C(O)c1ccc(CN2CCC[C@H](O[C@H](CO)c3cc(Cl)cc(Cl)c3)[C@@H]2c2ccccc2)cc1
 |  |  | 4.21 | COc1cc(C(=O)O)ccc1CN1CCC[C@H](OCc2cc(Cl)cc(Cl)c2)[C@@H]1c1ccccc1
154 (≈ 76.8 µg/mL) | 11 | 3.85 | 5.10 | OC[C@@H](O[C@H]1CCCN(Cc2cccc3nonc23)[C@H]1c1ccccc1)c1cc(Cl)cc(Cl)c1
 |  |  | < 3.70 | Clc1cc(Cl)cc(CO[C@H]2CCCN(Cc3ncco3)[C@H]2c2ccccc2)c1
 |  |  | < 3.70 | Clc1cc(Cl)cc(CO[C@H]2CCCN(Cc3nccs3)[C@H]2c2ccccc2)c1
128 (≈ 69.1 µg/mL) | 4 | 3.85 | 4.66 | O=C(O)c1ccc2c(CN3CCC[C@H](O[C@H](CO)c4cc(Cl)cc(Cl)c4)[C@@H]3c3ccccc3)c[nH]c2c1
154 (≈ 88.2 µg/mL) | 15 | 4.92 | 5.35 | COC(=O)Nn1c(C[C@H]2CCC[C@H](OCc3cc(C(F)(F)F)cc(C(F)(F)F)c3)[C@@H]2c2ccccc2)n[nH]c1=O
 |  |  | 5.43 | OC[C@@H](O[C@H]1CCCN(Cc2ccccc2Cc2nnco2)[C@H]1c1ccccc1)c1cc(Cl)cc(Cl)c1
 |  |  | 4.12 | O=C(O)c1ccc(CN2CCC[C@H](OCc3cc(Cl)cc(Cl)c3)[C@@H]2c2ccccc2)s1
 |  |  | < 3.70 | Clc1cc(Cl)cc(CO[C@H]2CCCN(Cc3ccccc3)[C@H]2c2ccccc2)c1
 |  |  | < 3.70 | Clc1cc(Cl)cc(CO[C@H]2CCCN(Cc3ccncc3)[C@H]2c2ccccc2)c1
 |  |  | 3.91 | COc1ccc(C(=O)O)cc1CN1CCC[C@H](OCc2cc(Cl)cc(Cl)c2)[C@@H]1c1ccccc1
 |  |  | < 3.70 | C[C@@H](O[C@H]1OCCN(Cc2n[nH]c(=O)[nH]2)[C@H]1c1ccc(F)cc1)c1cc(C(F)(F)F)cc(C(F)(F)F)c1 [APREPITANT]

Source: ChEMBL document CHEMBL4834494, “Discovery of the First Non-cGMP Mimetic Small Molecule Activators of cGMP-Dependent Protein Kinase 1 α (PKG1α)” (ACS Med Chem Lett, 2021)
